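Tested at 5 concentrations; 48 h exposure; 96-well plates; endpoints linearly interpolated, else capped at highest concentration. GI50: concentration for 50% inhibition of growth.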 Active and inactive are the calls of the source. Rule as the data show it: active = GI50 up to about 1.1 µM and inactive = higher.
Assays:
Assay in all cases: growth of human tumour cells (NCI), 48 h
[1] = system: NCI-H522
[2] = system: IGROV-1
[3] = system: HOP-62
[4] = system: HCC 2998
[5] = system: OVCAR-3
[6] = system: EKVX
[7] = system: NCI-H226
[8] = system: OVCAR-8
[9] = system: LOX IMVI
[10] = system: NCI-H23
[11] = system: UO-31
[12] = system: KM12
[13] = system: SF-539
[14] = system: SK-OV-3
[15] = system: NCI/ADR-RES
[16] = system: HCT-15
[17] = system: CCRF-CEM
[18] = system: Malme-3M
[19] = system: A549
[20] = system: A498

Row | SMILES | GI50 [1] | GI50 [2] | GI50 [3] | GI50 [4] | GI50 [5] | GI50 [6] | GI50 [7] | GI50 [8] | GI50 [9] | GI50 [10] | GI50 [11] | GI50 [12] | GI50 [13] | GI50 [14] | GI50 [15] | GI50 [16] [µM] | GI50 [17] | GI50 [18] | GI50 [19] | GI50 [20]
1 | O=P(c1ccccc1)(c1ccccc1)C(NCc1ccccc1)c1ccc(F)cc1 (stereo unspecified) | 11.5 µM (inactive) | 15.5 µM (inactive) | 21.6 µM (inactive) | 16.1 µM (inactive) | 14.2 µM (inactive) | 12.7 µM (inactive) | 16.2 µM (inactive) | 19 µM (inactive) | 14.2 µM (inactive) | 13.6 µM (inactive) | 12.8 µM (inactive) | 13.2 µM (inactive) | 17.7 µM (inactive) | 16.1 µM (inactive) | 14 µM (inactive) | 13.2 | 16.9 µM (inactive) | 17.9 µM (inactive) | 15 µM (inactive) | 15.2 µM (inactive)
2 | O=C(O)c1cc(/N=N/c2ccc([N+](=O)[O-])cc2)ccc1O | 28 µM (inactive) | 40.2 µM (inactive) | 40.6 µM (inactive) | 18.7 µM (inactive) | 15.6 µM (inactive) | 19 µM (inactive) | 17 µM (inactive) | 33.4 µM (inactive) | 39.7 µM (inactive) | 40.2 µM (inactive) | 16.6 µM (inactive) | 33.2 µM (inactive) | 33.3 µM (inactive) | 81.7 µM (inactive) | 30.8 µM (inactive) | 31.8 | 28.4 µM (inactive) | 42.6 µM (inactive) | 32.6 µM (inactive) | 19.5 µM (inactive)
3 | Cc1n[nH]c(=O)n1/N=C\CC/C=N\n1c(C)n[nH]c1=O | > 100 µM (inactive) | > 100 µM (inactive) | > 100 µM (inactive) | > 100 µM (inactive) | > 100 µM (inactive) | > 100 µM (inactive) | > 100 µM (inactive) | > 100 µM (inactive) | > 100 µM (inactive) | > 100 µM (inactive) | > 100 µM (inactive) | > 100 µM (inactive) | > 100 µM (inactive) | > 100 µM (inactive) | > 100 µM (inactive) | > 100 | > 100 µM (inactive) | > 100 µM (inactive) | > 100 µM (inactive) | > 100 µM (inactive)
4 | C[C@]12CC[C@H](O)C[C@H]1CC[C@@H]1[C@@H]2CC[C@]2(C)[C@@H](C3=CC(=O)OC3)CC[C@]12O [DIGITOXIGENIN] | < 0.01 µM (active) | 0.0668 µM (active) | 0.04 µM (active) | 0.235 µM (active) | 0.0367 µM (active) | 0.0873 µM (active) | 1.27 µM (inactive) | 0.147 µM (active) | 0.0547 µM (active) | 0.0338 µM (active) | 0.117 µM (active) | 0.713 µM (active) | 0.0356 µM (active) | 0.111 µM (active) | 0.115 µM (active) | 0.101 | 0.0297 µM (active) | 0.0615 µM (active) | 0.0183 µM (active) | 0.125 µM (active)
5 | CCCN1C(=O)CCC2=C1CCc1c2ccc(Cl)c1Cl | 23.3 µM (inactive) | 30.8 µM (inactive) | 38.5 µM (inactive) | 21.3 µM (inactive) | 23 µM (inactive) | 0.0305 µM (active) | 60.5 µM (inactive) | 23.2 µM (inactive) | 25.6 µM (inactive) | 29.4 µM (inactive) | 53 µM (inactive) | 38 µM (inactive) | 25.9 µM (inactive) | 24.3 µM (inactive) | 33.8 µM (inactive) | 50.6 | 39.9 µM (inactive) | 61.1 µM (inactive) | 27.2 µM (inactive) | 13 µM (inactive)
6 | Cc1cccc(C(=O)O)c1CC1NCCC2c3ccccc3NC12 (stereo unspecified) | > 100 µM (inactive) | > 100 µM (inactive) | > 100 µM (inactive) | > 100 µM (inactive) | 20.7 µM (inactive) | > 100 µM (inactive) | > 100 µM (inactive) | > 100 µM (inactive) | > 100 µM (inactive) | > 100 µM (inactive) | > 100 µM (inactive) | > 100 µM (inactive) | > 100 µM (inactive) | > 100 µM (inactive) | > 100 µM (inactive) | > 100 | > 100 µM (inactive) | > 100 µM (inactive) | > 100 µM (inactive) | > 100 µM (inactive)
7 | Cn1nc(-c2ccccc2)nc1[N+](=O)[O-] | > 10 µM (inactive) | > 10 µM (inactive) | > 10 µM (inactive) | > 10 µM (inactive) | > 10 µM (inactive) | > 10 µM (inactive) | > 10 µM (inactive) | > 10 µM (inactive) | > 10 µM (inactive) | > 10 µM (inactive) | > 10 µM (inactive) | > 10 µM (inactive) | > 10 µM (inactive) | > 10 µM (inactive) | > 10 µM (inactive) | > 10 | > 10 µM (inactive) | > 10 µM (inactive) | > 10 µM (inactive) | > 10 µM (inactive)
8 | COCCCNC(=O)C1=C(C)NC(C)=C(C(=O)NCCCOC)C1 | 9.23 µM (inactive) | 11.3 µM (inactive) | > 100 µM (inactive) | > 100 µM (inactive) | > 100 µM (inactive) | 18.6 µM (inactive) | > 100 µM (inactive) | > 100 µM (inactive) | > 100 µM (inactive) | > 100 µM (inactive) | 71.4 µM (inactive) | > 100 µM (inactive) | > 100 µM (inactive) | > 100 µM (inactive) | > 100 µM (inactive) |  | > 100 µM (inactive) | 18.1 µM (inactive) | > 100 µM (inactive) | > 100 µM (inactive)
9 | CN=C(n1ccnc1)n1ccnc1 | > 100 µM (inactive) | > 100 µM (inactive) |  | > 100 µM (inactive) | > 100 µM (inactive) | > 100 µM (inactive) | > 100 µM (inactive) | > 100 µM (inactive) | > 100 µM (inactive) | > 100 µM (inactive) | > 100 µM (inactive) | > 100 µM (inactive) | > 100 µM (inactive) | > 100 µM (inactive) | > 100 µM (inactive) | > 100 | > 100 µM (inactive) | > 100 µM (inactive) | > 100 µM (inactive) | > 100 µM (inactive)
10 | O=C(NCc1ccccc1Cl)c1c(O)c2ccccc2[nH]c1=O | > 100 µM (inactive) | 24.6 µM (inactive) | 19.1 µM (inactive) | 33.3 µM (inactive) | 32 µM (inactive) | > 100 µM (inactive) | 44.7 µM (inactive) | 75 µM (inactive) | > 100 µM (inactive) | > 100 µM (inactive) | 13.6 µM (inactive) | > 100 µM (inactive) | > 100 µM (inactive) |  | 12.2 µM (inactive) | 42.8 | > 100 µM (inactive) | > 100 µM (inactive) | 77.8 µM (inactive) | 15.9 µM (inactive)
11 | Cn1cncc1CC1COC(=O)C1C(O)c1ccccc1 (stereo unspecified) | > 100 µM (inactive) | > 100 µM (inactive) | > 100 µM (inactive) | > 100 µM (inactive) | > 100 µM (inactive) | > 100 µM (inactive) | > 100 µM (inactive) | > 100 µM (inactive) | > 100 µM (inactive) | > 100 µM (inactive) |  | > 100 µM (inactive) | > 100 µM (inactive) | > 100 µM (inactive) | > 100 µM (inactive) | > 100 | > 100 µM (inactive) | > 100 µM (inactive) | > 100 µM (inactive) | > 100 µM (inactive)

Source: ChEMBL document CHEMBL1201862, “PubChem BioAssay data set” (2004)
